Experimental data: PubChem BioAssay AID366 (MTDP, 2006)
Activity calls are given as the source filed them. No rule for the calls is given here.

target: Ribonuclease H1 (Homo sapiens) (UniProt O60930); experiment: inhibition of human ribonuclease H1 activity – biochemical, FRET RNA/DNA duplex cleavage, dose response (AID 366); settings: human RNase H1, FRET RNA/DNA duplex cleavage, fluorescence;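 also: potency is for inhibitors that lower RNA cleavage and so lower fluorescence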
Sequence (O60930 whole entry, looked up): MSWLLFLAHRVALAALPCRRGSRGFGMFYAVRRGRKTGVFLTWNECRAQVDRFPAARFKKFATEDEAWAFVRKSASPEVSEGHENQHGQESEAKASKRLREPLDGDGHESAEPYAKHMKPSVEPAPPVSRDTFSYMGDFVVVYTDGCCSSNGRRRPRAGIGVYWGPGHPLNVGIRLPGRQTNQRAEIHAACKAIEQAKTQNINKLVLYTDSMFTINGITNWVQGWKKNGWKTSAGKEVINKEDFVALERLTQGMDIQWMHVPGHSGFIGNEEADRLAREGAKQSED

Compound	IC50
Cc1ccc(C(=O)NC(=S)Nc2ccc(-c3nc4ccccc4s3)cc2)cc1[N+](=O)[O-]	800 nM
CCC(=O)Nc1sc2c(c1C(=O)Nc1ccc(OC)cc1)CCCCC2	9000 nM
Cc1sc(NC(=O)Cc2ccccc2)c(C(N)=O)c1C	inactive
O=c1oc2ccccc2c(O)c1/C=C1\C=Nc2ccccc21	9700 nM
Oc1cc(O)c2c(c1)OC(c1ccc(O)c(O)c1)C(OC1(c3cc(O)c(O)c(O)c3)Oc3cc(O)cc(O)c3C(O)C1O)C2 (stereo not given)	2400 nM
C[C@H]1[C@H](O)c2c(c3c(c4c(-c5ccccc5)cc(=O)oc24)OC(C)(C)C=C3)O[C@@H]1C	9000 nM
O=C1NC(=S)N(c2ccccc2F)C(=O)C1=Cc1ccco1	200 nM
Cc1cc(Br)ccc1N1C(=O)/C(=C/c2ccco2)C(=O)NC1=S	800 nM
O=C1C=CC(=O)c2c(O)cccc21	500 nM
O=C(CSc1nc2ccccc2s1)c1sc2sc3ccccc3[n+]2c1[O-]	300 nM
O=C1/C(=C/c2ccco2)C(=O)N(c2ccc(Br)cc2)C(=S)N1c1ccccc1	4400 nM
CCCCCCCCCCCCCCCC(=O)OCC1OC(n2ccc(N)nc2=O)C(O)C1O (stereo not given)	600 nM
CC(=O)/C=C/C=C/c1ccc2c(c1)OC(CO)C(c1ccc(O)c(O)c1)O2 (stereo not given)	6000 nM
Cc1cc(C(=O)O)ccc1-n1c(C)ccc1C	inactive
O=c1c(O)cccc2cc(O)c(O)c(O)c12	900 nM
O=C1/C(=C\c2ccc(O)c(O)c2)SC(=S)N1c1cccc(Cl)c1	1600 nM
O=C(Oc1ccccc1)Oc1c(Cl)cc2oc(=O)sc2c1Cl	3000 nM
O=C1c2ccccc2C(=O)N1c1ccc(-c2nc3ccc(N4C(=O)c5ccccc5C4=O)cc3[nH]2)cc1	540 nM
COc1ccc(/C=C\C(=O)c2c(-c3ccccc3)c3cc(C)ccc3[nH]c2=O)c(OC)c1	8400 nM
O=C(O)CCc1c2ccc(=O)c(O)c-2oc2c(O)c(O)ccc12	70 nM
Cc1ccc(S(=O)(=O)N=C2C=C(Cl)C(=O)C(Br)=C2)cc1	4700 nM
CC(C)=CCC/C(C)=C/Cc1cc(/C=C/c2cc(O)c(C/C=C(\C)CCC=C(C)C)c(O)c2)cc(O)c1O	1300 nM

Compound	IC50
COc1c(OC)c(O)c2c(=O)cc(-c3ccc(O)c(O)c3)oc2c1OC	inactive
NCC[Se][Se]CCN	5300 nM
Cc1ccc(-c2cc(C(=O)Nc3sc(C(=O)OC(C)C)c(C)c3C(N)=O)c3ccccc3n2)s1	800 nM
N#Cc1c(NC(=O)C(F)(F)F)sc2c3c(=O)c4ccccc4c(=O)c=3oc3ccccc3c12	inactive
CCCc1cc(=O)oc2c3c(c4c(c12)OC(C)(C)C=C4)O[C@H](C)[C@@H](C)[C@H]3OC	4900 nM
O=S(=O)(O)c1cc(N=[N+]([O-])c2cc(S(=O)(=O)O)c3ccccc3c2)cc2ccccc12	500 nM
Cc1c(O)c(Br)c(C)c(O)c1Br (tested in a mixture with another compound)	inactive
O=C1C=CC(=NS(=O)(=O)c2ccc(Cl)c([N+](=O)[O-])c2)C=C1	2100 nM
O=c1c(O)c(-c2cc(O)c(O)c(O)c2)oc2cc(O)cc(O)c12	3000 nM
O=C(O)C1Nc2c(Cl)cc(Cl)cc2C2C=CCC12 (stereo not given)	8800 nM
O=[N+]([O-])c1cc(Cc2cc([N+](=O)[O-])c3cccnc3c2O)c(O)c2ncccc12	500 nM
Cc1cc(Cl)ccc1OCC(=O)Nc1sc(C)c(C)c1C(N)=O	4300 nM
CCCCCCCCCCCCCCCCCCOCC(O)CO (stereo not given)	> 100000 nM (inactive)
Cc1c(Cl)ccc2c1NC(C(=O)O)C1CC=CC21 (stereo not given)	2000 nM
O=[N+]([O-])c1c(Cl)cccc1-c1c[nH]cc1Cl	> 100000 nM (inactive)
CC1C2C=CC1C(c1c3ccc(=O)c(O)c-3oc3c(O)c(O)ccc13)C2C(=O)O (stereo not given)	70 nM
O=C1NC(=S)S/C1=C/c1cccc(OCc2ccc(Cl)c(Cl)c2)c1	7300 nM
COC([CH2][Hg][n]1cnc2c1c(=O)n(C)c(=O)n2C)CN1C(=O)c2ccccc2S1(=O)=O (stereo not given)	3300 nM
CCOc1ccc(C2=CC(=O)C=CC2=O)cc1	5700 nM
CC(C)c1ccc(O)c(=O)cc1	inactive
CCOc1cccc(N2C(=O)/C(=C/c3cn(CC(=O)OC)c4ccccc34)C(=O)NC2=S)c1	920 nM
O=C(Nc1ccc(N2CCN(C(=O)c3ccccc3)CC2)cc1)c1ccc(-c2ccccc2)cc1	350 nM

Compound	IC50
O=C(NC(=S)Nc1cc(-c2nc3ccccc3s2)ccc1Cl)c1ccc(F)cc1	800 nM
COc1ccc(NC(=O)c2c(N)sc(-c3ccccc3)c2C)cc1	2000 nM
Nc1nc(Sc2ccc([N+](=O)[O-])c3nonc23)c2[nH]cnc2n1	inactive
Cc1nn(CC(=O)Nc2sc(C)c(C)c2C(N)=O)c(C)c1[N+](=O)[O-]	6000 nM
S=C(Nc1ccc2c(c1)Cc1ccccc1-2)Nc1ccc2c(c1)Cc1ccccc1-2	1300 nM
Cc1ccc(-c2c(C#N)c(SCC(=O)c3ccc(O)c(O)c3)nc3c2CCCC3)o1	1500 nM
Cc1sc(NC(=O)c2ccc3c(c2)OCO3)c(C(N)=O)c1C	3300 nM
O=C1C=C(NCCc2cc(Br)c(O)c(Br)c2)C(=O)c2ncccc21	6800 nM
O=C(Cc1ccccc1Cl)c1ccc(O)c(O)c1O	inactive
O=C1c2ccccc2C(=O)c2c(NC3CCCCC3)ccc(Nc3ccc(S(=O)(=O)O)cc3)c21	2200 nM
COc1ccc(N2C(=O)/C(=C/c3ccc(I)o3)C(=O)NC2=S)cc1	1200 nM
C=C(CCC(C(=O)O)C1CCC2(C)C3=C(CCC12C)C1(C)CCC(O)C(C)(C)C1CC3)C(C)C (stereo not given)	4800 nM
O=C(N/N=C/c1ccc(/C=N/NC(=O)c2ccc(O)c(O)c2)cc1)c1ccc(O)c(O)c1	40 nM
COc1cc(C=O)ccc1OCCCOc1cccc(Oc2ccccc2)c1	6000 nM
Cc1ccccc1-n1c(O)c(C=C2C=CC=N2)c(=O)[nH]c1=S	5000 nM
NC(=O)c1c(NC(=O)CCc2ccccc2)sc2c1CCCCCC2	1800 nM
Oc1ccc(/C=N/Nc2nncc(-c3ccccc3)n2)c(O)c1O	1100 nM
Cc1cc(=O)c2c(O)c3c(O)cc(O)c4c5c(O)cc(O)c6c(O)c7c(=O)cc(C)c8c1c2c(c34)c(c65)c78	1100 nM
O=C1NN(c2ccc(I)cc2)C(=O)/C1=C\c1ccc(O)c(O)c1	8300 nM
Cc1sc(NC(=O)c2cccc([N+](=O)[O-])c2)c(C(N)=O)c1C	700 nM
C[C@@H]1[C@H](O)c2c(c3c(c4c(-c5ccccc5)cc(=O)oc24)OC(C)(C)C=C3)O[C@@H]1C	4800 nM
